Data as given in US7115728B1, “Human peroxisome proliferator activated receptor γ” (Ligand Pharmaceutical Incorporated, priority 1995, dated 2006).

How the values were obtained:
hPPARγ [1] = biological target: T1, hPPARγ (Homo sapiens, UniProt P37231); experiment: Co-transfection assay with pCMVhPPARγ3 and pPREA3-tk-LUC reporter in CV-1 cells, FIG. 4; type: cell-based; settings: CV-1 cells transfected with pCMVhPPARγ3; pPREA3-tk-LUC; 1 μM compound; read-out: fold induction of reporter gene
T1 construct: expressed in transfected cells; host or cells: CV-1 cells
T1 sequence (P37231 31-505): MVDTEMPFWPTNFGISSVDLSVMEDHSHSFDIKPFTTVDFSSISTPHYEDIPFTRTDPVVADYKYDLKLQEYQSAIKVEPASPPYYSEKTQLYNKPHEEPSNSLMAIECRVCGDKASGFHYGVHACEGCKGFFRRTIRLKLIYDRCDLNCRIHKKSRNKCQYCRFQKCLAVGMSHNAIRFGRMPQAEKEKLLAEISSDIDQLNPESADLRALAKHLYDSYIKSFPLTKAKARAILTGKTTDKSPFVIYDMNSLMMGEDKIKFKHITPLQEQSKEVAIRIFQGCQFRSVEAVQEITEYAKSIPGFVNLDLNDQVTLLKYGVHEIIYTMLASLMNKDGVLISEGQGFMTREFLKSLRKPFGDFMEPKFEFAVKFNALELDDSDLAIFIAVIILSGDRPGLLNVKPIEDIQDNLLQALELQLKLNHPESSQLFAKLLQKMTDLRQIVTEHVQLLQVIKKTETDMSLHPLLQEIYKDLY
Experimental: (§1) CV-1 cells were transfected with pCMVhPPARγ3 or the empty expression vector pBKCMV (no receptor). Thiazolidinedione was added.
(§2) Biochem. Molec. Biol. 41, 733–738).
(§3) Control cells were treated with vehicle.
(§4) Each data point represents the mean of three transfections. Error bars represent the standard deviation from the mean.
To increase the level of hPPARγ protein synthesis, Applicant deleted a region containing the two inframe upstream ATG codons since these are absent in mouse PPARγ. pCMVhPPARγ was digested with NcoI, blunt ended with Klenow, and digested again with KpnI. The insert was isolated and directionally cloned into pBKCMV plasmid, which was digested with XbaI (blunt ended with Klenow) and KpnI. In the ensuing plasmid pCMVhPPARγ3, the translation initiation codon is within the context of a stronger Kozak translation initiation sequence.
(§5) A cotransfection assay was performed in CV-1 cells with the pPREA3-tk-LUC and 1 μM thiazolidinedione (BRL 49,653, see Ibrahimi et al., Molecular Pharmacology 46:1070–1076, 1994). Thiazolidinedione is an insulin sensitizer and has potential use in the treatment of non-insulin dependant diabetes mellitus.

[2] = tested on: CV-1 cells transfected with the empty expression vector pBKCMV (no receptor); experiment: Co-transfection assay, control CV-1 cells transfected with empty expression vector, FIG. 4; type: cell-based, monkey; settings: CV-1 cells transfected with the empty expression vector (no receptor); 1 μM compound
Experimental: as §1, §2, §3, §4, §5

hPPARα = biological target: T2, hPPARα (Homo sapiens, UniProt Q07869); experiment: Co-transfection assay, activation of hPPARα, FIG. 2; type: cell-based; settings: CV-1 cells transfected with 0.1 μg pCMVhPPARα; gemfibrozil final concentration printed as 100 M
T2 construct: expressed in transfected cells; host or cells: CV-1 cells
T2 sequence (Q07869 1-468): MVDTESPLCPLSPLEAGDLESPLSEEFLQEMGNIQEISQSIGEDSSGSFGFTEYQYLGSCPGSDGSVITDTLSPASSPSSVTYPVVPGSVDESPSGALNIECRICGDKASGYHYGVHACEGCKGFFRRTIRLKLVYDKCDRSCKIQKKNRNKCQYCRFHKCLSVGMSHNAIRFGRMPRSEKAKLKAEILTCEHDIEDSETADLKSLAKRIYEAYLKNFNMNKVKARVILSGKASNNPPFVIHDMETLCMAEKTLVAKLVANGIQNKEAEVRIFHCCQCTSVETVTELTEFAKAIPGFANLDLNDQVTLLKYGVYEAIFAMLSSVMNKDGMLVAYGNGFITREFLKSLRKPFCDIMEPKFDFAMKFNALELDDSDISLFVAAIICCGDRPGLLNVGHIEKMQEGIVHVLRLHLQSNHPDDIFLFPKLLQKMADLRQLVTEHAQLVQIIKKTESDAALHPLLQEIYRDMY
Experimental: CV-1 cells were transfected with 0.1 μg of pCMVhPPARα and 0.1 or 0.4 μg of pCMVhNUC1 or pCMVhPPARγ. Gemfibrozil was added to a final concentration of 100 µM.
as §2
Where indicated, 0–0.5 μg of hNUC1B plasmid or hPPARγ plasmid (repressor) was added. Repressor plasmid dosage was kept constant by the addition of appropriate amounts of the empty expression vector pBKCMV. Total amount of DNA was kept at 20 μg by the addition of pGEM DNA (Promega).
as §3, §4
hPPARα is activated in the presence of gemfibrozil. When hNUC1 or hPPARγ is contransfected into cells along with hPPARα, a dose dependant repression was observed (FIG. 2). Repression of hPPARα with hNUC1 is stronger than with hPPARγ. No repression with 0.1 μg of hPPARγ was observed while repression with 0.1 μg of hNUC1 was clearly seen. However, repression with 0.4 μg of hPPARγ was observed.

hPPARγ [3] = biological target: T3, hPPARγ (Homo sapiens, UniProt P37231); experiment: Co-transfection assay, transactivation of hPPARγ (pCMVhPPARγ) in CV-1 cells, FIG. 1; settings: CV-1 cells transfected with 0.1 μg pCMVhPPARγ; compared with empty vector pBKCMV (no receptor)
T3 sequence (P37231 with tags, fused parts or gaps limits assumed): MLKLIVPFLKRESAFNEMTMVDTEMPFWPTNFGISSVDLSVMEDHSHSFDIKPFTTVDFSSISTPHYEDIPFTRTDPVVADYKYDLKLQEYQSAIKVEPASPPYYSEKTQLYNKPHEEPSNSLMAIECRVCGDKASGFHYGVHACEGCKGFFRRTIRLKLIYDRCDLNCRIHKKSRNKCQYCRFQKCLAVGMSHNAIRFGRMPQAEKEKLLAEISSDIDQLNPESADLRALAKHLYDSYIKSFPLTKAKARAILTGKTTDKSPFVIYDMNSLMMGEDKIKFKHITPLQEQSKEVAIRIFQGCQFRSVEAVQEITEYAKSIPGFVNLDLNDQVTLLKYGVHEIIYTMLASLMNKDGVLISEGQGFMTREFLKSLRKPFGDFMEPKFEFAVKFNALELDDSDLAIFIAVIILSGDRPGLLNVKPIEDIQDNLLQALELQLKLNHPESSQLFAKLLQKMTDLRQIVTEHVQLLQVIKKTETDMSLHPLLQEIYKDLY
Experimental: CV-1 cells were transfected with 0.1 μg pCMVhPPARγ or the empty expression vector pBKCMV (no receptor).
CV-1 or HepG2 cells were grown in Dulbecco's modified Eagle's medium (DMEM) supplemented with 10% (v/v) fetal bovine serum (Hyclone), 2 mM L-glutamine, and 55 μg/ml gentamicin (BioWhittaker). Cells were plated at 2×10^5 cells per well for HepG2 in 12 well cell culture dishes (Costar). The media was replaced with fresh media 20 hours later.
After 14 hours the cells were washed with 1×PBS and fresh media added (DMEM with 10% charcoal stripped fetal bovine serum (Hyclone) plus the above supplements). Ligands or PPAR activators were added to the final concentrations indicated. Control cells were treated with vehicle.
After another 24 hours the cells were harvested and the luciferase and β-galactosidase activities quantified on a Dynatech ML 1000 luminometer and a Beckman Biomek 1000 workstation respectively. The normalized response is the luciferase activity of the extract divided by the β-galactosidase activity of the same. Each data point represents the mean of three transfections. Error bars represent the standard deviation from the mean.
Control cells received an equivalent amount of vehicle. In the repression assays repressor plasmid dosage was kept constant by adding the appropriate amount of the empty expression vector pBKCMV.

mPPARγ = settings: Tontonoz et al. 1994; Kliewer et al.; cited from earlier work

O=C1CSC(=O)N1 [Thiazolidinedione]
fold induction at 1 µM (hPPARγ [1]): 25 | fold activation of reporter gene [2]: 7 fold

Cc1ccc(C)c(OCCCC(C)(C)C(=O)O)c1 [gemfibrozil]
activation of hPPARα (hPPARα): activated

CC1=C(/C=C/C(C)=C\C=C\C(C)=C\C(=O)O)C(C)(C)CCC1 [9-cis retinoic acid]
activation of hPPARγ (fold induction of reporter gene versus control cells) (hPPARγ [3]): same fold activation as in control transfections

CCCCCC#CCC#CCC#CCC#CCCCC(=O)O [ETYA, 5,8,11,14-eicosatetraynoic acid]
transcriptional activation of mPPARγ (mPPARγ): transcriptionally activated

CCCc1c(OCCCCc2nnn[nH]2)ccc(C(C)=O)c1O [LY-171,883]
transcriptional activation of mPPARγ (mPPARγ): transcriptionally activated
